For orientation: EC50 means the concentration needed to bring the measured effect to its halfway point.

For one compound, EC50 results are on record in article PMC6377692 (EJNMMI Research, 2019).

This experiment deals with cynomolgus monkey GCGR. Briefly: functional cAMP assay in transfected HEK293 cells. Format: cell-based. On the procedure:
The same assay was performed for GLP-1R to assess cross-binding. Details of the assay procedure are described in Additional file 1 and have also been described elsewhere.
cAMP content of cells was determined using a kit from Cisbio Corp. (cat. no. 62AM4PEJ) based on HTRF (Homogenous Time Resolved Fluorescence). For preparation, cells were split into T175 culture flasks and grown overnight to near confluency in medium (DMEM / 10% FBS). Medium was then removed and cells washed with PBS lacking calcium and magnesium, followed by proteinase treatment with accutase (Sigma-Aldrich cat. no. A6964). Detached cells were washed and resuspended in assay buffer (1 x HBSS; 20 mM HEPES, 0.1% BSA, 2 mM IBMX) and cellular density determined. They were then diluted to 400000 cells/ml and 25 µl-aliquots dispensed into the wells of 96-well plates. For measurement, 25 µl of test compound in assay buffer was added to the wells, followed by incubation for 30 minutes at room temperature.

Bridge positions count the residues as written; N and C are the ends. Square brackets hold non-standard residues; d marks the D form. Peptide text beside a SMILES is read from it. * marks the point of attachment. DO3A(CH2CH2SO2CH2CH2) = O=C(O)CN1CCN(CCS(=O)(=O)CC*)CCN(CC(=O)O)CCN(CC(=O)O)CC1; Ala(4-thiazolyl) = N[C@@H](Cc1cscn1)C(=O)O

The compound `CC[C@H](C)[C@H](NC(=O)[C@H](Cc1ccccc1)NC(=O)[C@H](CCC(=O)O)NC(=O)[C@@H]1CCCCNC(=O)CC[C@H](NC(=O)[C@H](CC(=O)O)NC(=O)[C@H](CC(C)C)NC(=O)[C@H](CCC(N)=O)NC(=O)[C@H](CCCCN)NC(=O)[C@H](CO)NC(=O)[C@H](Cc2ccc(O)cc2)NC(=O)[C@H](CC(=O)O)NC(=O)[C@H](CO)NC(=O)[C@@H](NC(=O)[C@H](Cc2ccccc2)NC(=O)[C@@H](NC(=O)CNC(=O)[C@H](CCC(N)=O)NC(=O)[C@@H](CO)NC(=O)[C@@H](N)Cc2cscn2)[C@@H](C)O)[C@@H](C)O)C(=O)N[C@@H](CCC(N)=O)C(=O)N[C@@H](CCCNC(=N)N)C(=O)N[C@@H](C)C(=O)N1)C(=O)N[C@@H](CCC(=O)O)C(=O)N[C@@H](Cc1c[nH]c2ccccc12)C(=O)N[C@@H](CC(C)C)C(=O)N[C@@H](CC(C)C)C(=O)N[C@@H](C)C(=O)N[C@H](C(=O)NCC(=O)N1CCC[C@H]1C(=O)N[C@@H](CCC(=O)O)C(=O)N[C@@H](CO)C(=O)NCC(=O)N[C@@H](C)C(=O)N1CCC[C@H]1C(=O)N1CCC[C@H]1C(=O)N1CCC[C@H]1C(=O)N[C@@H](CO)C(=O)N[C@@H](CSCCS(=O)(=O)CCN1CCN(CC(=O)O)CCN(CC(=O)O)CCN(CC(=O)O)CC1)C(N)=O)[C@@H](C)O` [DO3A-S01-GCG] (H-[Ala(4-thiazolyl)][dS]QGTFTSDYSKQLDEQRAKEFIEWLLATGPESGAPPPSC(DO3A(CH2CH2SO2CH2CH2))-NH2; lactam 16-20) displayed an EC50 of 1.2 pM.
